Series [1] concerns the target HiBiT tagged GSPT1 (Homo sapiens, UniProt P15170+Q96SW2). Kind of series: GSPT1 degradation assay (HiBiT assay). In kind it is cell-based. The settings on record: 20 hours, maximum GSPT1 degradation; for HiBiT GSPT1: Dmax: HT-1080 cells; for Dmax: HT-1080, HT-1080 cells. The method, boiled down:
(§1)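 HT-1080 cells stably expressing wild-type CRBN, GSPT1A(1-138)/G575N and HiBiT-tagged CK1α or GSPT1, ~10,000/well, treated with compound from 3.162×10^-4 μM to 10 μM (3.16-fold steps). HiBiT luminescence normalized to DMSO as percent of control.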

The target in series [2] is HiBiT tagged CK1α (Homo sapiens, UniProt P48729+Q96SW2). Kind of series: CK1α degradation assay (HiBiT assay). In kind it is cell-based. The settings on record: 20 hours; for DC50 / HiBiT CK1α: Dmax: HT-1080 cells; for DC50: concentration at 50% CK1α degradation; for HiBiT CK1α: Dmax / Dmax: maximum CK1α degradation; for Dmax: HT-1080, HT-1080 cells. The method, boiled down: as §1
Background: HiBiT is a short tag that completes a luciferase, so light tracks the accessible tagged protein.

The subject of series [3] is MV4-11 cells. Kind of series: MV4-11 cell proliferation assay (CTG cell viability). Conditions: 120 hours, read-out: CTG cell viability assay_MV4-11: IC50. In kind it is cell-based. The method, then: MV4-11 Cell Proliferation Assay
The following is an example of an assay that can be used to determine the dose-dependent, anti-proliferative activity of CK1α degradating compounds in an AML cell line such as MV4-11 (ATCC Cat #CRL-9591).
MV4-11 cells were seeded into a 384-well plate (Cat #3764, Corning) pre-spotted with DMSO or test compounds. Increasing concentrations of test compounds (ranging from 1×10^−3 μM to 10 μM at a 3.162-fold increment in a 10-point dose response assay; ranging from 3.162×10^−4 μM to 10 μM at a 3.162-fold increment in a 11-point dose response assay) or DMSO were dispensed into an empty 384-well plate using an a D300e digital dispenser (Tecan) or an Echo Acoustic Liquid Handler (Beckman Coulter). About 2,000 cells in 50 μL of culture media (IMDM plus 10% heat-inactivated FBS) were seeded per well. Assay plates were incubated at 37° C. with 5% CO2 for 120 hours. After that, 20 μL of the CellTiter-Glo Luminescent Cell Viability Assay Reagent (Cat #G7573, Promega) was added to each well and incubated at room temperature for 30 minutes. Luminescence was then measured with an EnVision plate reader (PerkinElmer) or a PHERAstar plate reader (BMG LABTECH). All cell growth inhibition curves were processed using Collaborative Drug Discovery Vault softwares (Burlingame, CA, www.collaborativedrug.com).
Cell viability reads in compound-treated wells were normalized to that of DMSO control and expressed as Percent of Control (PoC, y). A four Parameter Logistic Model was used to determine the compound's EC50 and DC50, using the following equation:
[formula] • A==lowest cell viability read normalized to DMSO control in response to compound treatment, as determined by curve fit • B=cell viability read in DMSO control • C=EC50 • D=Hill Slope • x=compound concentration • EC50=the concentration of compound when y=(B−A)/2 • IC50=the concentration of the compound when y=50% of DMSO control • y=cell viability read normalized to DMSO control Ymin=(A/B)*100% • Ymin represents the lowest cell viability % that can be achieved by the compound treatment in the assay.

Series [4] can be described thus: Pharmacokinetic study of single intravenous and oral administration in mouse. In kind it is in vivo. The settings on record: for C0 / clearance / half-life / Vd / AUC(0-inf) / Cmax / Tmax: plasma; for Vd: read-out: Vss. As for the experimental part: The pharmacokinetic study of single intravenous and oral administration in mouse Sample collection and preparation: After intravenous injection or oral administration of test compounds, blood samples were collected and the blood collection time was recorded. After the blood sample was collected, it was immediately transferred into a labeled centrifuge tube containing K2-EDTA, followed by centrifugation and plasma collection. The plasma was then transferred into a pre-cooled centrifuge tube, quickly frozen on dry ice, and stored in an ultra-low temperature refrigerator at −70±10° C. until the LC-MS/MS analysis was performed.
Pharmacokinetic data analysis: The pharmacokinetic software was used to process the plasma drug concentration data of the compound in a non-compartmental model. The peak concentration (Cmax), peak time (Tmax) and quantifiable end time can be directly obtained from the plasma concentration-time diagram. The log-linear trapezoidal method was used to calculate the following pharmacokinetic parameters: half-life (T1/2), apparent volume of distribution (Vdss) and clearance (Cl), and the area under the time-plasma concentration curve (AUC0-inf) from the 0 point to the end point.

Structures are written as SMILES. Like-named read-outs stand apart in the source and are kept apart here.

Chain of HiBiT tagged CK1α (P48729 whole entry): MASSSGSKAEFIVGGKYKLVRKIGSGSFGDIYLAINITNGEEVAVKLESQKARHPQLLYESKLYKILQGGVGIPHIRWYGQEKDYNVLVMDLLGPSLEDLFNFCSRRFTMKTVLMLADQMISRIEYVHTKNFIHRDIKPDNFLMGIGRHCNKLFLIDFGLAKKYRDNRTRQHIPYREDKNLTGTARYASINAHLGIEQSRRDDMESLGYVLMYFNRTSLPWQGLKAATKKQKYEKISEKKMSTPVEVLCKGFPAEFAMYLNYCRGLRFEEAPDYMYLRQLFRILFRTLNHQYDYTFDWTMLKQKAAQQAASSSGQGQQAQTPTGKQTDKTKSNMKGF
Chain of HiBiT tagged CK1α (Q96SW2 whole entry): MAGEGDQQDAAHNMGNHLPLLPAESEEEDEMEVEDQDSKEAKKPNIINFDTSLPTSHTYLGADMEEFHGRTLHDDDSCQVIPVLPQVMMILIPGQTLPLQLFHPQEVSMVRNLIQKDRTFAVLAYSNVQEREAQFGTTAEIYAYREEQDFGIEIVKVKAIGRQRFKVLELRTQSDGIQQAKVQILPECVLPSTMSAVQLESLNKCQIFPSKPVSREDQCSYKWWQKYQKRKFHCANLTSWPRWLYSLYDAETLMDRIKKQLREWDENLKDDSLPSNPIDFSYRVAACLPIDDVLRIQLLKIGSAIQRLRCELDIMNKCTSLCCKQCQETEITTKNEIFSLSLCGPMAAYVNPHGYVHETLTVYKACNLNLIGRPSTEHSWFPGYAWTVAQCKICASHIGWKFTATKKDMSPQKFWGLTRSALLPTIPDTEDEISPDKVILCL
Chain of HiBiT tagged CK1α (Q16531 whole entry partner): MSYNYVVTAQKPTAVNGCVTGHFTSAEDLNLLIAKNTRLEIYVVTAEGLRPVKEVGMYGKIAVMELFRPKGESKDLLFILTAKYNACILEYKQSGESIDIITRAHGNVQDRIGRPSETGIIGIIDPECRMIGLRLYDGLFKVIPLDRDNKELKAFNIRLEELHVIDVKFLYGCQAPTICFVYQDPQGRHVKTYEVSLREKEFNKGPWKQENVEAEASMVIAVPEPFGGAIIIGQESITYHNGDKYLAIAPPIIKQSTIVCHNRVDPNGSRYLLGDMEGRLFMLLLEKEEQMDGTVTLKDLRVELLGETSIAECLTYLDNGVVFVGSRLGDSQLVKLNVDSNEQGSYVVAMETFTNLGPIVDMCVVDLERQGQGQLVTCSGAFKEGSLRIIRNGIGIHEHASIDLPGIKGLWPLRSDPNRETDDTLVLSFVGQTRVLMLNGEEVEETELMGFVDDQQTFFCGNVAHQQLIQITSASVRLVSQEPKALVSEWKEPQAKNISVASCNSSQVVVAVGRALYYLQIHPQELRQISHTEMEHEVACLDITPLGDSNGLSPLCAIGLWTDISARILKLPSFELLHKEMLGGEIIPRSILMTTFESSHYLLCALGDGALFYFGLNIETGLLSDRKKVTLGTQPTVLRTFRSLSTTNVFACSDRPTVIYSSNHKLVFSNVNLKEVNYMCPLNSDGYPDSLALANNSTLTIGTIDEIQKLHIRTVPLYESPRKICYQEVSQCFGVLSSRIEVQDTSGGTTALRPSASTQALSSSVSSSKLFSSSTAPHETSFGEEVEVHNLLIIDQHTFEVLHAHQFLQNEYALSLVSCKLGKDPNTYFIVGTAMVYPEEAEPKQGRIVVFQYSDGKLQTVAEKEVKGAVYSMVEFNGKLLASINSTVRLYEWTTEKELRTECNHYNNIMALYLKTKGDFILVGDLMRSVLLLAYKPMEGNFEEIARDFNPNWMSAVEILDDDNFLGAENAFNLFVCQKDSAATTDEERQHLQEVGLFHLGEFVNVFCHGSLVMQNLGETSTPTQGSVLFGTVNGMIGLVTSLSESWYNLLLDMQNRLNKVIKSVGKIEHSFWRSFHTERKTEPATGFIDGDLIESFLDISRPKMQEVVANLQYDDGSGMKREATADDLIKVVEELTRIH
Chain of HiBiT tagged GSPT1 (P15170 whole entry): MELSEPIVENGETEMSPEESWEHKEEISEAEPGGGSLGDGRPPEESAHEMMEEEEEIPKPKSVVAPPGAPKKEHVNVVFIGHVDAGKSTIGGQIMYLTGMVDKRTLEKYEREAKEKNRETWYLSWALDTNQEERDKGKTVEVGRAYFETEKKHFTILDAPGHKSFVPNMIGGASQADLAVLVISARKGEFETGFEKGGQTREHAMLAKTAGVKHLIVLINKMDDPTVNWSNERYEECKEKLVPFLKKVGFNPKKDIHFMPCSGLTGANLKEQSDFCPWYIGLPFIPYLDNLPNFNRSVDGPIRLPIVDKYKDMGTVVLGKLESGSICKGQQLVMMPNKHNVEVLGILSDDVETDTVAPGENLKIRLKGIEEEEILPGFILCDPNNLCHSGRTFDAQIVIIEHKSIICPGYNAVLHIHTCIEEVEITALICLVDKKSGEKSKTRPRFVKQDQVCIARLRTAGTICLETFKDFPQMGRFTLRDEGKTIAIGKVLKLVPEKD
Chain of HiBiT tagged GSPT1 (Q96SW2 whole entry): as the sequence (Q96SW2 whole entry) above
Chain of HiBiT tagged GSPT1 (Q16531 whole entry partner): as the sequence (Q16531 whole entry partner) above

Usually DC50 stands for the concentration giving 50% degradation. Low values mean degradation at low concentration, high ones degradation only at high concentration. A word on the IC50: it is the concentration that inhibits the measured activity by half. For `O=C1CCC(N2Cc3cc(C(=O)N[C@H](c4ccc(Cl)cn4)C4CCC4)ccc3C2=O)C(=O)N1` (stereo in doubt) [Compound 76, N—((*S)-(5-chloropyridin-2-yl)(cyclobutyl)methyl)-2-(2,6-dioxopiperidin-3-yl)-1-oxoisoindoline-5-carboxamide], in series [1], the “HiBiT GSPT1: Dmax” value turned out to be 23.5%. Moreover, in series [2], half-maximal degradation (DC50) was put at 0.219 µM and the “HiBiT CK1α: Dmax” value stood at 64.4%. For the same compound, the IC50 in series [3] was found to be 0.071 µM.

In general, Dmax refers to the greatest extent of degradation seen. Low values mean a partial loss of target, high ones a fuller loss of target. Consider `Cn1cc(-c2cccnc2[C@@H](NC(=O)c2ccc3c(c2)CN([C@H]2CCC(=O)NC2=O)C3=O)C2CCC2)cn1` (single isomer, unassigned) [Compound 84, N—((*S)-cyclobutyl(3-(1-methyl-1H-pyrazol-4-yl)pyridin-2-yl)methyl)-2-((S)-2,6-dioxopiperidin-3-yl)-1-oxoisoindoline-5-carboxamide], for which the Dmax in series [1] worked out at 15.2%; in series [2], 72.4%. This compound came in with a DC50 in series [2] of 0.0741 µM. Also, the IC50 in series [3] (Homo sapiens) came out at 0.024 µM.

`O=C1CCC(N2Cc3cc(C(=O)N[C@@H](c4ccc(F)cc4F)C4CCC4)ccc3C2=O)C(=O)N1` (stereo in doubt) [Compound 42, N-((*R)-cyclobutyl(2,4-difluorophenyl)methyl)-2-(2,6-dioxopiperidin-3-yl)-1-oxoisoindoline-5-carboxamide]: the Dmax was determined as 40.8% in series [1] and 57.7% in series [2]. In series [2], this compound displayed a DC50 of 1.15 µM. Moreover, the IC50 in series [3] (Homo sapiens) turned out to be 0.42 µM.

`O=C1CCC(N2Cc3cc(C(=O)N[C@H](c4ncc(Cl)cc4Cl)C4CCC4)ccc3C2=O)C(=O)N1` (stereo in doubt) [Compound 79, N-((*S)-cyclobutyl(3,5-dichloropyridin-2-yl)methyl)-2-(2,6-dioxopiperidin-3-yl)-1-oxoisoindoline-5-carboxamide]: the greatest degradation seen (Dmax) was 20.4% in series [1] and 65.9% in series [2]. This compound registered a DC50 in series [2] of 0.274 µM. Moreover, the 50% inhibitory concentration (IC50) in series [3] (Homo sapiens) stood at 0.176 µM.

By half-life is commonly meant the time in which the quantity being followed falls by half. Broadly, the AUC(0-inf) is total exposure, with the tail of the curve extrapolated. Low readings indicate less exposure, high ones more exposure. By Cmax is commonly meant the maximum level reached in the sampled fluid or tissue. The term Tmax denotes the time from dosing to the highest level. `O=C1CC[C@H](N2Cc3cc(C(=O)N[C@H](c4ccc(Cl)cn4)C4CCC4)ccc3C2=O)C(=O)N1` (single isomer, unassigned) [Compound 82]: in series [4] (2 mg/kg, IV), the C0 amounted to 6800 ng/mL, the clearance was determined as 10.5 mL/min/kg, the half-life is 1.34 h and the Vd was 0.85 L/kg. In addition, in series [4] (10 mg/kg, PO), the AUC(0-inf) was determined as 13300 ng·h/mL, the Cmax worked out at 6080 ng/mL, the time of peak concentration (Tmax) was found to be 0.67 h and the half-life is 2.03 h. In series [1], this compound displayed a Dmax of 16.2%. The Dmax in series [2] was 66.3%. Moreover, the IC50 in series [3] (Homo sapiens) amounted to 0.06 µM.

In the case of `O=C1CCC(N2Cc3cc(C(=O)N[C@H](c4ccc(Cl)cc4)C4CCC4)ccc3C2=O)C(=O)N1` (stereo in doubt) [Compound 36, N-((*S)-(4-chlorophenyl)(cyclobutyl)methyl)-2-(2,6-dioxopiperidin-3-yl)-1-oxoisoindoline-5-carboxamide], the results for the Dmax in series [1] and in series [2] were 24.6% and 65.8%, respectively. Further, in series [2], the DC50 is 0.0667 µM. For the same compound, in series [3] (Homo sapiens), the IC50 stood at 0.128 µM.

On to `O=C1CC[C@H](N2Cc3cc(C(=O)N[C@H](c4ccc(F)cc4)C4CCC4)ccc3C2=O)C(=O)N1` (single isomer, unassigned) [Compound 9, N—((*S)-cyclobutyl(4-fluorophenyl)methyl)-2-((S)-2,6-dioxopiperidin-3-yl)-1-oxoisoindoline-5-carboxamide], for which the Dmax amounted to 22.6% in series [1] and 71.6% in series [2]. In series [2], it took 0.116 µM to reach half-maximal degradation (DC50). Moreover, the IC50 in series [3] (Homo sapiens) is 0.172 µM.

Consider `O=C1CCC(N2Cc3cc(C(=O)N[C@H](c4ncc(Cl)cc4F)C4(F)CCC4)ccc3C2=O)C(=O)N1` (stereo in doubt) [Compound 89, N-((*R)-(5-chloro-3-fluoropyridin-2-yl)(1-fluorocyclobutyl)methyl)-2-(2,6-dioxopiperidin-3-yl)-1-oxoisoindoline-5-carboxamide], for which the Dmax in series [1] amounted to 17.3%. In series [2], this compound came in with a maximal degradation (Dmax) of 69% and a DC50 of 0.148 µM. Moreover, the IC50 in series [3] (Homo sapiens) was 0.198 µM.

As for `O=C1CCC(N2Cc3cc(C(=O)N[C@H](c4ncccc4Cl)C4(F)CCC4)ccc3C2=O)C(=O)N1` (stereo in doubt) [Compound 87, N-[(*R)-(3-chloro-2-pyridyl)-(1-fluorocyclobutyl)methyl]-2-(2,6-dioxo-3-piperidyl)-1-oxo-isoindoline-5-carboxamide], in series [1], the Dmax worked out at 25%. In series [2], this compound had a Dmax of 59.8% and a DC50 of 0.279 µM. In series [3] (Homo sapiens), the IC50 was 0.133 µM.

As to `O=C1CCC(N2Cc3cc(C(=O)N[C@H](c4ccc(F)cc4)C4CC(F)(F)C4)ccc3C2=O)C(=O)N1` (single isomer, unassigned) [Compound 6], the figures for the Dmax in series [1] and in series [2] were 30.1% and 60.9%, respectively. Besides, the IC50 in series [3] (Homo sapiens) is 0.691 µM.

Turning to `O=C1CCC(N2Cc3cc(C(=O)N[C@H](c4ccc(F)cn4)C4(F)CCC4)ccc3C2=O)C(=O)N1` (stereo in doubt) [Compound 86, 2-(2,6-dioxopiperidin-3-yl)-N-((*R)-(1-fluorocyclobutyl)(5-fluoropyridin-2-yl)methyl)-1-oxoisoindoline-5-carboxamide], in series [4] (10 mg/kg, PO), the F was found to be 70.4%, the total exposure AUC(0-inf) is 14900 ng·h/mL, the Cmax was 5690 ng/mL and the Tmax was 0.5 h. Besides, in series [4] (10 mg/kg, PO), the half-life is 2.12 h. Besides, in series [4] (2 mg/kg, IV), the C0 worked out at 4910 ng/mL, the clearance was found to be 7.85 mL/min/kg, the half-life is 3.62 h and the Vd turned out to be 0.87 L/kg. This compound gave a Dmax in series [1] of 18.2%. In series [2], this compound gave a maximal degradation (Dmax) of 63% and a DC50 of 0.193 µM. In addition, the IC50 in series [3] (Homo sapiens) was 0.142 µM.

`O=C1CCC(N2Cc3cc(C(=O)N[C@H](c4ncccc4-c4ccc(F)cc4)C4CCC4)ccc3C2=O)C(=O)N1` (stereo in doubt) [Compound 83, N—((*S)-cyclobutyl(3-(4-fluorophenyl)pyridin-2-yl)methyl)-2-(2,6-dioxopiperidin-3-yl)-1-oxoisoindoline-5-carboxamide]: the Dmax worked out at 14.4% in series [1] and 66% in series [2]. This compound also came in with a DC50 in series [2] of 0.115 µM. The IC50 in series [3] (Homo sapiens) came to 0.027 µM.

As to `O=C1CCC(N2Cc3cc(C(=O)N[C@@H](c4ccc(F)cc4)C4CC(F)(F)C4)ccc3C2=O)C(=O)N1` (single isomer, unassigned) [Compound 5], the Dmax in series [1] amounted to 30.3%; in series [2] it was 75.9%. In addition, the IC50 in series [3] (Homo sapiens) was found to be 0.363 µM.

For `O=C1CC[C@@H](N2Cc3cc(C(=O)N[C@H](c4ccc(F)cc4)C4CCC4)ccc3C2=O)C(=O)N1` (relative stereo) [Compound 8, N—((*S)-cyclobutyl(4-fluorophenyl)methyl)-2-((R)-2,6-dioxopiperidin-3-yl)-1-oxoisoindoline-5-carboxamide], the “HiBiT GSPT1: Dmax” value in series [1] came out at 23.4%. Also, in series [2], the 50% degradation concentration (DC50) amounted to 0.16 µM and the “HiBiT CK1α: Dmax” value amounted to 72.9%. The concentration for half-maximal inhibition (IC50) in series [3] is 0.205 µM.

In turn, `O=C1CCC(N2Cc3cc(C(=O)N[C@H](c4ccc(F)cn4)C4CCC4)ccc3C2=O)C(=O)N1` (stereo in doubt) [Compound 78, N-((*S)-cyclobutyl(5-fluoropyridin-2-yl)methyl)-2-(2,6-dioxopiperidin-3-yl)-1-oxoisoindoline-5-carboxamide] gave a Dmax in series [1] of 14.4%. In series [2], the Dmax worked out at 67.2% and half-maximal degradation (DC50) was put at 0.198 µM. Also, the IC50 in series [3] (Homo sapiens) was determined as 0.176 µM.

The values above are taken from patent publication US12673936B2, “Isoindolinone compounds, and uses thereof” (HANGZHOU GLUBIO PHARMACEUTICAL CO., LTD., priority 2021, dated 2026).
